Test results as given in patent US9290451B2 (Hoffmann-La Roche Inc., priority 2011, dated 2016).

Experiments:
human CB1 receptors = human CB1 receptors (Homo sapiens (Human), UniProt P21554); test: cAMP assay, CHO cells expressing human CB1 receptors; assay type: cell-based; conditions: CHO cells expressing human CB1, cAMP; read-out: human CB1 EC50
Procedure, shortened: (§1)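 CHO cells expressing human CB1 or CB2 were preincubated 30 min at 30 °C in Krebs Ringer bicarbonate buffer with 1 mM IBMX, then exposed to compound 30 min at 30 °C. cAMP quantified by time-resolved FRET against a cAMP standard curve; EC50 values derived.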

human CB2 receptors = human CB2 receptors (Homo sapiens (Human), UniProt P34972); test: cAMP assay, CHO cells expressing human CB2 receptors; assay type: cell-based; conditions: CHO cells expressing human CB2, cAMP; read-out: human CB2 EC50
human CB2 receptors, sequence (P34972 whole entry): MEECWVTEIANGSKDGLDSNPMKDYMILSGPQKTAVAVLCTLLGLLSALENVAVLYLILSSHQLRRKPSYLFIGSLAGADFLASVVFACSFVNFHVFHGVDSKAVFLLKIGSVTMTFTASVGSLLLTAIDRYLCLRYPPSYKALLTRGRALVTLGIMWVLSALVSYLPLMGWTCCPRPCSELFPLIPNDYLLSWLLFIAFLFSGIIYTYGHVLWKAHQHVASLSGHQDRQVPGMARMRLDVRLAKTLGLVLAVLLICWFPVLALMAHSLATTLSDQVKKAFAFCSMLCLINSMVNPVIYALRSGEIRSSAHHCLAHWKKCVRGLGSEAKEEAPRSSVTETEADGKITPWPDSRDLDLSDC
Procedure, shortened: as §1

human CB1 receptors, sequence (P21554 whole entry): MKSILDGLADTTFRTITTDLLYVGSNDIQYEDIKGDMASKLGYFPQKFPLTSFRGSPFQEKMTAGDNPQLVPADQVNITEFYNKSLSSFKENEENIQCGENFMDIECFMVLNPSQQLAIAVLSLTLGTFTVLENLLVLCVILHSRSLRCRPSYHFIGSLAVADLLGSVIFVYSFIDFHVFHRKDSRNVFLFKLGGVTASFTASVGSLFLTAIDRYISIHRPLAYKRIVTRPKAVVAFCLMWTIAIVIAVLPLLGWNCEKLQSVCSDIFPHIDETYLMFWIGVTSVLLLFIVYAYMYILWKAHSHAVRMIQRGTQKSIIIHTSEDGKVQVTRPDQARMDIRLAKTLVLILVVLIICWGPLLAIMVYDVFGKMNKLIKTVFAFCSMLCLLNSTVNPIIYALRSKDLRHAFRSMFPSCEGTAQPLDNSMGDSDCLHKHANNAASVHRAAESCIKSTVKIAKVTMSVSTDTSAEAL

Structure (SMILES) | EC50 (human CB1 receptors) | EC50 (human CB2 receptors)
O=C(NN1CCCCC1)c1cccc(OCC2CC2)n1 [Example 68, 6-Cyclopropylmethoxy-pyridine-2-carboxylic acid piperidin-1-ylamide] | > 10000 nM | 429 nM
Cc1ccc(C(=O)NN2CCCCC2)nc1-c1cccc(Cl)c1 [Example 52, 6-(3-Chloro-phenyl)-5-methyl-pyridine-2-carboxylic acid piperidin-1-yl-amide] | > 10000 nM | 322 nM
O=C(NC1CCS(=O)(=O)C1)c1ccc(N2CC(F)(F)C2)c(OCC2CC2)n1 (stereo not shown) [Example 292, 6-Cyclopropylmethoxy-5-(3,3-difluoro-azetidin-1-yl)-pyridine-2-carboxylic acid (1,1-dioxo-tetrahydro-1λ^6-thiophen-3-yl)-amide] | > 10000 nM | 874 nM
Cc1nc([C@H](CC2CC2)NC(=O)c2ccc(C3CC3)c(S(=O)(=O)CC(C)C)n2)no1 [Example 352, 5-Cyclopropyl-6-(2-methyl-propane-1-sulfonyl)-pyridine-2-carboxylic acid [(S)-2-cyclopropyl-1-(5-methyl-[1,2,4]oxadiazol-3-yl)-ethyl]-amide] | > 10000 nM | 189 nM
NC(=O)[C@H](CC1CC1)NC(=O)c1ccc(NC2CC2)c(OCC2CC2)n1 [Example 133, 5-Cyclopropylamino-6-cyclopropylmethoxy-pyridine-2-carboxylic acid ((S)-1-carbamoyl-2-cyclopropyl-ethyl)-amide] | > 10000 nM | 37.7 nM
CNC(=O)[C@H](CC(C)(C)C)NC(=O)c1cccc(-c2cccc(Cl)c2)n1 [Example 193, (S)-6-(3-Chlorophenyl)-N-(4,4-dimethyl-1-(methylamino)-1-oxopentan-2-yl)picolinamide] | > 10000 nM | 99.4 nM
Cc1nc(C(C)(C)NC(=O)c2ccc(C(F)(F)F)c(OCC3CC3)n2)no1 [Example 120, 6-Cyclopropylmethoxy-5-trifluoromethyl-pyridine-2-carboxylic acid [1-methyl-1-(5-methyl-[1,2,4]oxadiazol-3-yl)-ethyl]-amide] | > 10000 nM | 259 nM
CC(C)(C)NC(=O)c1ccc(N2CC(F)(F)C2)c(OCC2CC2)n1 [Example 359, 6-Cyclopropylmethoxy-5-(3,3-difluoro-azetidin-1-yl)-pyridine-2-carboxylic acid tert-butylamide] | > 10000 nM | 6.9 nM
NC(=O)[C@@H](NC(=O)c1ccc(C2CC2)c(OCC2CC2)n1)C1CC1 [Example 374, 5-Cyclopropyl-6-cyclopropylmethoxy-pyridine-2-carboxylic acid ((+)-carbamoyl-cyclopropyl-methyl)-amide] | > 10000 nM | 28.1 nM
CC(C)(NC(=O)c1ccc(C2CC2)c(OCC2CC2)n1)c1ncon1 [Example 73, 5-Cyclopropyl-6-cyclopropylmethoxy-pyridine-2-carboxylic acid (1-methyl-1-[1,2,4]oxadiazol-3-yl-ethyl)-amide] | 1320 nM | 40.7 nM
CNC(=O)[C@@H](NC(=O)c1cccc(-c2cccc(F)c2)n1)C(C)(C)C [Example 213, (S)-N-(3,3-Dimethyl-1-(methylamino)-1-oxobutan-2-yl)-6-(3-fluorophenyl)picolinamide] | 361 nM | 12.8 nM
COC(=O)C(C)(C)NC(=O)c1ccc(C2CCOCC2)c(OCC2CC2)n1 [Example 9, 2-{[6-Cyclopropylmethoxy-5-(tetrahydro-pyran-4-yl)-pyridine-2-carbonyl]-amino}-2-methyl-propionic acid methyl ester] | > 10000 nM | 55.8 nM
Cc1nc([C@@](C)(NC(=O)c2ccc(C3CC3)c(S(=O)(=O)CC(C)C)n2)C2CC2)no1 [Example 382, (−)-5-Cyclopropyl-6-(2-methyl-propane-1-sulfonyl)-pyridine-2-carboxylic acid [1-cyclopropyl-1-(5-methyl-[1,2,4]oxadiazol-3-yl)-ethyl]-amide] | > 10000 nM | 50.8 nM
Cc1noc(C(C)(C)NC(=O)c2ccc(C3CC3)c(OCC3CC3)n2)n1 [Example 176, 5-Cyclopropyl-6-(cyclopropylmethoxy)-N-(2-(3-methyl-1,2,4-oxadiazol-5-yl)propan-2-yl)picolinamideinamide] | > 10000 nM | 114 nM
CC(C)C[C@H](NC(=O)c1ccc(C2CC2)c(Cc2ccc(F)cc2)n1)C(=O)O [Example 336, (S)-2-{[5-Cyclopropyl-6-(4-fluoro-benzyl)-pyridine-2-carbonyl]-amino}-4-methyl-pentanoic acid] | > 10000 nM | 239 nM
Cc1nc([C@H](CC2CC2)NC(=O)c2ccc(C3CC3)c(Cc3ccc(F)cc3)n2)no1 [Example 327, 5-Cyclopropyl-6-(4-fluoro-benzyl)-pyridine-2-carboxylic acid [(S)-2-cyclopropyl-1-(5-methyl-[1,2,4]oxadiazol-3-yl)-ethyl]-amide] | 13.6 nM | 1.1 nM
CC(C)(NC(=O)c1ccc(Cl)c(-c2cccc(Cl)c2)n1)c1ncon1 [Example 88, 5-Chloro-6-(3-chloro-phenyl)-pyridine-2-carboxylic acid (1-methyl-1-[1,2,4]oxadiazol-3-yl-ethyl)-amide] | > 10000 nM | 356 nM
CCC(C)(NC(=O)c1ccc(C2CC2)c(OCC2CC2)n1)C(N)=O (stereo not shown) [Example 170, N-(1-Amino-2-methyl-1-oxobutan-2-yl)-5-cyclopropyl-6-(cyclopropylmethoxy)picolinamide] | > 10000 nM | 194 nM
O=C(NC1(c2nccs2)COC1)c1ccc(Br)c(OCC(F)(F)F)n1 [Example 282, 5-Bromo-6-(2,2,2-trifluoro-ethoxy)-pyridine-2-carboxylic acid (3-thiazol-2-yl-oxetan-3-yl)-amide] | > 10000 nM | 368 nM
O=C(N[C@@H](c1ccccn1)C(F)(F)F)c1ccc(C2CC2)c(Cc2ccc(F)cc2)n1 [Example 332, 5-Cyclopropyl-6-(4-fluoro-benzyl)-pyridine-2-carboxylic acid ((S)-2,2,2-trifluoro-1-pyridin-2-yl-ethyl)-amide] | 91 nM | 4.5 nM
NC(=O)[C@H](CC1CC1)NC(=O)c1ccc(N2CCC(F)(F)C2)c(OCC2CC2)n1 [Example 112, 6-Cyclopropylmethoxy-5-(3,3-difluoro-pyrrolidin-1-yl)-pyridine-2-carboxylic acid ((S)-1-carbamoyl-2-cyclopropyl-ethyl)-amide] | > 10000 nM | 15.4 nM
CC(C)C[C@H](NC(=O)c1cccc(Cc2ccc(F)cc2)n1)C(N)=O [Example 277, 6-(4-Fluoro-benzyl)-pyridine-2-carboxylic acid ((S)-1-carbamoyl-3-methyl-butyl)-amide] | 1700 nM | 16.6 nM
CC(C)C[C@@H](CNc1ccc([N+](=O)[O-])c2nonc12)NC(=O)c1ccc(N2CCCC2)c(OCC2CC2)n1 [Example 344, 6-Cyclopropylmethoxy-5-pyrrolidin-1-yl-pyridine-2-carboxylic acid {(S)-3-methyl-1-[(7-nitro-benzo[1,2,5]oxadiazol-4-ylamino)-methyl]-butyl}-amide] | > 10000 nM | 25.6 nM
